The source made the active and inactive calls. The calls are words filed in the database; no cut-off is given here.
Key:
CCRF-CEM = assay: Antiproliferative activity against human CEM cells assessed as inhibition of cell proliferation incubated for 3 days by Coulter counter based assay; type: functional; conditions: 72 h
HeLa = assay: Antiproliferative activity against human HeLa cells assessed as inhibition of cell proliferation incubated for 4 days by Coulter counter based assay; type: functional; conditions: 96 h
FM3A = assay: Antiproliferative activity against mouse FM3A cells assessed as inhibition of cell proliferation incubated for 2 days by Coulter counter based assay; type: functional; conditions: 48 h
L1210 = assay: Antiproliferative activity against mouse L1210 cells assessed as inhibition of cell proliferation incubated for 2 days by Coulter counter based assay; type: functional; conditions: L1210, 48 h
HL-60 [1] = assay: Cytotoxicity against human HL60 cells assessed as reduction in cell viability incubated for 72 hrs by MTT assay; type: functional, cell-based
HL-60 [2] = assay: Induction of apoptosis in human HL60 cells assessed as cleavage of pro-caspase-3/7 activity at 3 uM incubated for 8 hrs DEVD-pNA chromogenic substrate proteolytic cleavage assay; type: functional
HL-60 [3] = assay: Induction of apoptosis in human HL60 cells assessed as cleavage of pro-caspase-3 at 3 uM incubated for 8 hrs by immunoblot method; type: functional, cell-based
HL-60 [4] = assay: Induction of apoptosis in human HL60 cells assessed as hypodiploid cells level at 1 uM incubated for 24 hrs by propidium iodide staining based flow cytometry relative to untreated control; type: functional
HL-60 [5] = assay: Induction of apoptosis in human HL60 cells assessed as cleavage of pro-caspase-9 at 3 uM incubated for 8 hrs by immunoblot method; type: functional, cell-based
U-937 [6] = assay: Induction of apoptosis in human U937 cells over-expressing human Bcl-2 assessed as increase in cytochrome c release into cytosol at 3 uM incubated for 8 hrs by immunoblot method; type: functional, cell-based
HL-60 [7] = assay: Induction of apoptosis in human HL60 cells assessed as induction of morphological changes by inverted phase contrast microscopy; type: functional, cell-based
U-937 [8] = assay: Induction of apoptosis in human U937 cells over-expressing human Bcl-2 assessed as induction of cell shrinkage at 3 uM incubated for 8 hrs by Hoechst 33258 staining based fluorescent microscopy; type: functional
HL-60 [9] = assay: Induction of apoptosis in human HL60 cells assessed as increase in cytochrome c release into cytosol at 3 uM incubated for 8 hrs by immunoblot method; type: functional, cell-based
U-937 [10] = assay: Induction of apoptosis in human U937 cells assessed as induction of increase in apoptotic bodies at 3 uM incubated for 8 hrs by Hoechst 33258 staining based fluorescent microscopy; type: functional, cell-based
HL-60 [11] = assay: Induction of DNA laddering in human HL60 cells at 3 to 10 uM incubated for 24 hrs by ethidium bromide staining based gel electrophoresis method; type: functional, cell-based
HL-60 [12] = assay: Induction of apoptosis in human HL60 cells assessed as hypodiploid cells level at 1 and 10 uM incubated for 24 hrs by propidium iodide staining based flow cytometry; type: functional, cell-based
U-937 [13] = assay: Induction of apoptosis in human U937 cells assessed as cleavage of pro-caspase-8 at 3 uM incubated for 8 hrs by immunoblot method; type: functional, cell-based
U-937 [14] = assay: Induction of apoptosis in human U937 cells over-expressing human Bcl-2 assessed as induction of increase in apoptotic bodies at 3 uM incubated for 8 hrs by Hoechst 33258 staining based fluorescent microscopy; type: functional, cell-based
U-937 [15] = assay: Cytotoxicity against human U937 cells over-expressing human Bcl-2 assessed as reduction in cell viability incubated for 72 hrs by MTT assay; type: functional, cell-based
U-937 [16] = assay: Induction of apoptosis in human U937 cells assessed as increase in cytochrome c release into cytosol at 3 uM incubated for 8 hrs by immunoblot method; type: functional, cell-based
HL-60 [17] = assay: Induction of apoptosis in human HL60 cells assessed as hypodiploid cells level at 1 uM incubated for 24 hrs by propidium iodide staining based flow cytometry (reference value: 2.6 +/- 0.6%); type: functional
U-937 [18] = assay: Induction of apoptosis in human U937 cells assessed as induction of cell shrinkage at 3 uM incubated for 8 hrs by Hoechst 33258 staining based fluorescent microscopy; type: functional
U-937 [19] = assay: Cytotoxicity against human U937 cells assessed as reduction in cell viability incubated for 72 hrs by MTT assay; type: functional, cell-based
U-937 [20] = assay: Induction of apoptosis in human U937 cells assessed as induction of morphological changes by inverted phase contrast microscopy; type: functional, cell-based
SK-MEL-1 = assay: Cytotoxicity against human SK-MEL-1 cells assessed as reduction in cell viability incubated for 72 hrs by MTT assay; type: functional, cell-based
U-937 [21] = assay: Induction of apoptosis in human U937 cells over-expressing human Bcl-2 assessed as induction of morphological changes by inverted phase contrast microscopy; type: functional, cell-based
U-937 [22] = assay: Induction of apoptosis in human U937 cells assessed as cleavage of pro-caspase-9 at 3 uM incubated for 8 hrs by immunoblot method; type: functional, cell-based
U-937 [23] = assay: Induction of apoptosis in human U937 cells assessed as induction of increase in condensed and fragmented chromatin at 3 uM incubated for 8 hrs by Hoechst 33258 staining based fluorescent microscopy; type: functional, cell-based
U-937 [24] = assay: Induction of apoptosis in human U937 cells over-expressing human Bcl-2 assessed as induction of increase in condensed and fragmented chromatin at 3 uM incubated for 8 hrs by Hoechst 33258 staining based fluorescent microscopy; type: functional, cell-based
U-937 [25] = assay: Induction of apoptosis in human U937 cells assessed as cleavage of pro-caspase-3 at 3 uM incubated for 8 hrs by immunoblot method; type: functional, cell-based
HL-60 [26] = assay: Induction of apoptosis in human HL60 cells assessed as cleavage of pro-caspase-8 at 3 uM incubated for 8 hrs by immunoblot method; type: functional, cell-based

COc1ccc(-c2csc3nc(-c4cccc(N)c4)cn23)cc1
IC50 (CCRF-CEM): 6.1 µM
IC50 (HeLa): 19 µM
IC50 (FM3A): 11 µM
IC50 (L1210): 19 µM

Nc1cccc(-c2cn3nc(-c4ccc(Cl)cc4)sc3n2)c1
IC50 (CCRF-CEM): > 250 µM
IC50 (HeLa): 160 µM
IC50 (FM3A): 160 µM
IC50 (L1210): ≥ 250 µM

C=C(Br)C(=O)Nc1cccc(-c2cn3nc(CCc4ccccc4)sc3n2)c1
IC50 (CCRF-CEM): 4.2 µM
IC50 (HeLa): 3.3 µM
IC50 (FM3A): 2.6 µM
IC50 (L1210): 2.2 µM

Nc1cccc(-c2cn3nc(Cc4ccc(Cl)cc4)sc3n2)c1
IC50 (CCRF-CEM): 42 µM
IC50 (HeLa): 25 µM
IC50 (FM3A): 6 µM
IC50 (L1210): 16 µM

Nc1cccc(-c2cn3nc(-c4ccc(F)cc4)sc3n2)c1
IC50 (CCRF-CEM): ≥ 250 µM
IC50 (HeLa): ≥ 250 µM
IC50 (FM3A): 33 µM
IC50 (L1210): ≥ 250 µM

C=C(Br)C(=O)Nc1cccc(-c2cn3nc(-c4ccc(OC)cc4)sc3n2)c1
IC50 (CCRF-CEM): 1.2 µM
IC50 (HeLa): 2.3 µM
IC50 (FM3A): 0.89 µM
IC50 (L1210): 0.94 µM

C=C(Br)C(=O)Nc1cccc(-c2cn3nc(-c4ccccc4)sc3n2)c1
IC50 (CCRF-CEM): 0.96 µM
IC50 (HeLa): 1.4 µM
IC50 (FM3A): 0.9 µM
IC50 (L1210): 0.6 µM

Nc1cccc(-c2cn3nc(CCc4ccccc4)sc3n2)c1
IC50 (CCRF-CEM): 30 µM
IC50 (HeLa): 242 µM
IC50 (FM3A): 29 µM
IC50 (L1210): 31 µM

C=C(Br)C(=O)Nc1cccc(-c2cn3c(-c4ccc(OC)cc4)csc3n2)c1
Activity (HL-60 [1]): Dose-dependent effect
IC50 (HL-60 [1]; HL-60, 72 h): 0.61 µM
fold change (FC) (HL-60 [2]): 3.8
Activity (HL-60 [3]): Active
fold change (FC) (HL-60 [4]): 4
Activity (HL-60 [5]): Active
Activity (U-937 [6]): Active
Activity (HL-60 [7]): Active
IC50 (CCRF-CEM): 0.5 µM
Activity (U-937 [8]): Active
Activity (HL-60 [9]): Active
Activity (U-937 [10]): Active
Activity (HL-60 [11]): inactive
Activity (HL-60 [12]): Dose-dependent effect
Activity (U-937 [13]): Active
Activity (U-937 [14]): Active
Activity (U-937 [15]): Dose-dependent effect
IC50 (U-937 [15]; U-937, 72 h): 0.37 µM
IC50 (HeLa): 0.86 µM
Activity (U-937 [16]): Active
Activity (HL-60 [17]): 11.1%
Activity (U-937 [18]): Active
IC50 (FM3A): 0.62 µM
Activity (U-937 [19]): Dose-dependent effect
IC50 (U-937 [19]; U-937, 72 h): 0.63 µM
Activity (U-937 [20]): Active
Activity (SK-MEL-1): Dose-dependent effect
IC50 (SK-MEL-1; SK-MEL-1, 72 h): 1 µM
Activity (U-937 [21]): Active
Activity (U-937 [22]): Active
Activity (U-937 [23]): Active
Activity (U-937 [24]): Active
IC50 (L1210): 0.2 µM
Activity (U-937 [25]): Active
Activity (HL-60 [26]): Active

COc1ccc(-c2nn3cc(-c4cccc(N)c4)nc3s2)cc1
IC50 (CCRF-CEM): ≥ 250 µM
IC50 (HeLa): ≥ 250 µM
IC50 (FM3A): 74 µM
IC50 (L1210): ≥ 250 µM

CCc1ccc(-c2nn3cc(-c4cccc(N)c4)nc3s2)cc1
IC50 (CCRF-CEM): 22 µM
IC50 (HeLa): 8.1 µM
IC50 (FM3A): 8.2 µM
IC50 (L1210): 6 µM

Nc1cccc(-c2cn3nc(Cc4ccccc4)sc3n2)c1
IC50 (CCRF-CEM): 37 µM
IC50 (HeLa): 24 µM
IC50 (FM3A): 4.7 µM
IC50 (L1210): 7.4 µM

C=C(Br)C(=O)Nc1cccc(-c2cn3nc(-c4ccc(Cl)cc4)sc3n2)c1
IC50 (CCRF-CEM): 3.2 µM
IC50 (HeLa): 3 µM
IC50 (FM3A): 2 µM
IC50 (L1210): 1.4 µM

Nc1cccc(-c2cn3nc(-c4ccccc4)sc3n2)c1
IC50 (CCRF-CEM): 33 µM
IC50 (HeLa): 26 µM
IC50 (FM3A): 14 µM
IC50 (L1210): 32 µM

Nc1cccc(-c2cn3c(-c4ccc(Cl)cc4)csc3n2)c1
IC50 (CCRF-CEM): 21 µM
IC50 (HeLa): 17 µM
IC50 (FM3A): 11 µM
IC50 (L1210): 22 µM

COc1ccc(Cc2nn3cc(-c4cccc(N)c4)nc3s2)cc1
IC50 (CCRF-CEM): ≥ 250 µM
IC50 (HeLa): 191 µM
IC50 (FM3A): 100 µM
IC50 (L1210): 227 µM

Source: ChEMBL document CHEMBL3608308, “Design, synthesis and antiproliferative activity of novel heterobivalent hybrids based on imidazo[2,1-b][1,3,4]thiadiazole and imidazo[2,1-b][1,3]thiazole scaffolds” (Eur J Med Chem, 2015)
